Molecular target: T1, FAAH (Rattus norvegicus, UniProt P97612)
T1 construct: For the assay of FAAH activity in rat brain membrane (RBM) homogenates; tissue Charles River (animals); host or cells: rat whole brain, membrane fraction
T1 sequence (P97612 1-579): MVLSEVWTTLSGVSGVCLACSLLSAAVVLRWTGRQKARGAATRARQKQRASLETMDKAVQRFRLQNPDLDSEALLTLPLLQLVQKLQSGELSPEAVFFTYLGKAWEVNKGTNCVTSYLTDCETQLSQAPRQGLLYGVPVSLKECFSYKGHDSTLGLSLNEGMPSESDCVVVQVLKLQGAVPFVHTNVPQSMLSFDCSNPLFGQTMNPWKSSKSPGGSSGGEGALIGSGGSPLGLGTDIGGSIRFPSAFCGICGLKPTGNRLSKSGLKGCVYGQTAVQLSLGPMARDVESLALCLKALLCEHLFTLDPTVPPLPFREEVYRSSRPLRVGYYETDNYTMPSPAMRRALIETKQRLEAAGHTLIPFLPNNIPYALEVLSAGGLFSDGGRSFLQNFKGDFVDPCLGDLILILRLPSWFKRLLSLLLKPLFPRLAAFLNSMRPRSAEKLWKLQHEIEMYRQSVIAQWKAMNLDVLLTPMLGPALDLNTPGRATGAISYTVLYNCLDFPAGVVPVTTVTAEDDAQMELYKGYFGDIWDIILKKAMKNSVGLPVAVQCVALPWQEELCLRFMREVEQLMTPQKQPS
Test: FAAH inhibition, rat brain membrane homogenate assay
Type: biochemical
Conditions: rat brain homogenate; average activity; read-out: Rat Brain Extract FAAH IC50
Method: Adult rats (Charles River CD strain, female, 200 g) were anaesthetized with isofluorane and rapidly decapitated. Each brain was quickly removed and chilled in tubes (3 brains per tube) on ice. About 25 mL of “homogenization buffer” (20 mM HEPES buffer, pH 7.0, with 1 mM MgCl2) was added to 15 to 20 g of brain. The brains were homogenized on ice for 1 minute using an Omni GLH homogenizer (Omni International, Marietta, Ga.). The homogenates were then transferred to three centrifuge tubes and centrifuged at 36,500 g for 20 minutes at 4° C. The supernatant was discarded and each pellet was re-suspended in 25 mL homogenization buffer. The re-suspended material was again centrifuged (36,500 g, 20 minutes at 4° C.). Pellets were combined by re-suspension in 10 mL of homogenization buffer and incubated in a 37° C. water bath for 15 minutes. The tubes were then placed on ice for 5 minutes followed by centrifugation at 36,500 g for 20 minutes at 4° C. The supernatant was discarded and the membrane pellets were then re-suspended in 40 mL of “re-suspension buffer” (50 mM Tris-HCl buffer, pH 7.4, containing 1 mM EDTA and 3 mM MgCl2). A Bradford Protein assay was performed to determine protein concentration. The protein was aliquotted into screw cap Cryo tubes each containing −400 μL, flash-frozen in liquid nitrogen and stored at −80° C. until used for the assay. A similar protocol was used to obtain brain membrane homogenates from mice
FAAH activity was assayed in the respective homogenates described herein (Rat brain, Mouse brain or Human brain) with certain of the exemplary compounds described above using a modification of the method of Omeir et al. (1995 Life Sci. 56:1999) and Fowler et al. (1997 J. Pharmacol. Exp. Ther. 283:729). For the assay of FAAH activity in rat brain membrane (RBM) homogenates, RBM homogenates (7 μg protein in 20 μL final volume of 10 mM Tris pH 6.5) were mixed with 180 μL of a mixture of the following: […] unlabelled anandamide (AEA), 0.03 Ci radio labeled anandamide [ethanolamine 1-^3H](40-60 Ci/mmol; product number ART-626, American Radiolabelled Chemicals, St. Louis, Mo.), 1 mg/mL Bovine Serum Albumin (fatty acid-free BSA, electrophoresis grade, Sigma, St. Louis, Mo.), 10 mM Tris-HCl (pH 6.5), and 1 mM EDTA in the presence and absence of test compounds (vehicle was DMSO at a final concentration of 1%) and incubated for 10 minutes at 37° C. Samples were placed on ice to terminate the reactions.
The ^3H-ethanolamine product and un-reacted ^3H-anandamide substrate were then separated by either: (1) using chloroform/methanol extraction or (2) passing the reaction mixture through a glass fiber filter containing activated charcoal. Samples were extracted with chloroform/methanol by adding 0.4 mL of chloroform/methanol (1:1 v/v), vigorously mixing the samples, and separating the aqueous and organic phases by centrifugation. Radioactivity (corresponding to FAAH-catalyzed breakdown of ^3H-anandamide) found in aliquots (0.2 mL) of the aqueous phase was determined by liquid scintillation counting with quench correction. IC50 values were determined as described by Jonsson et al. (2001 Br. J Pharmacol. 133:1263). Alternatively, reactions were purified using a modification of the solid-phase extraction method described by Wilson et al (2003 Anal. Biochem. 318: 270). This method was modified as follows: after reactions were incubated at 37° C. for 10 minutes and chilled on ice, the reaction mixtures were acidified by adding 10 μL of sodium phosphate solution[0.5M (pH 2.0)]. Next, 90 μL aliquots of the acidified reaction mixtures were applied to activated charcoal (that had been previously washed with methanol as described by Wilson et al. (supra)) containing 80 μL of water on top of a glass fiber filter, centrifuged, and the radioactivity in the eluate was counted as described previously by Wilson et al. (supra). […]

Question: With `COc1ccc2c(c1)c(C(=O)C(=O)Nc1cc(Cl)nc(OC)c1)c(C)n2Cc1ccc(Cl)cc1` [Compound 47, N-(2-chloro-6-methoxypyridin-4-yl)-2-(1-(4-chlorobenzyl)-5-methoxy-2-methyl-1H-indol-3-yl)-2-oxoacetamide] as the molecule, how does the IC50 read?
Answer: < 100 nM

Question: Which IC50 does the source give for `COc1ccc2c(C(=O)C(=O)Nc3ccnc(OC)c3)c(C)n(Cc3ccc(Cl)cc3)c2c1` [Compound 48, 2-(1-(4-chlorobenzyl)-6-methoxy-2-methyl-1H-indol-3-yl)-N-(2-methoxypyridin-4-yl)-2-oxoacetamide] here?
Answer: < 100 nM

Question: How did the IC50 turn out when `COc1ccc2c(c1)c(C(=O)C(=O)Nc1ccnc(O)c1)c(C)n2Cc1ccc(Cl)cc1` [Compound 50, 2-(1-(4-chlorobenzyl)-5-methoxy-2-methyl-1H-indol-3-yl)-N-(2-hydroxypyridin-4-yl)-2-oxoacetamide] was run?
Answer: 1000 to 10000 nM

Question: Which IC50 does the source give for `COc1cc(NC(=O)C(=O)c2c(C)n(Cc3ccc(Cl)cc3)c3c(OC)cccc23)ccn1` [Compound 51, 2-(1-(4-chlorobenzyl)-7-methoxy-2-methyl-1H-indol-3-yl)-N-(2-methoxypyridin-4-yl)-2-oxoacetamide] here?
Answer: 1000 to 10000 nM

Question: How did the IC50 turn out when `COc1ccc2c(c1)c(C(=O)C(=O)Nc1ccnc(OC)c1Cl)c(C)n2Cc1ccc(Cl)cc1` [Compound 52, N-(3-chloro-2-methoxypyridin-4-yl)-2-(1-(4-chlorobenzyl)-5-methoxy-2-methyl-1H-indol-3-yl)-2-oxoacetamide] was run?
Answer: > 10000 nM

Question: How did the IC50 turn out when `COc1ccc2c(c1)c(C(=O)C(=O)Nc1ccnc(OC)c1F)c(C)n2Cc1ccc(Cl)cc1` [Compound 53, 2-(1-(4-chlorobenzyl)-5-methoxy-2-methyl-1H-indol-3-yl)-N-(3-fluoro-2-methoxypyridin-4-yl)-2-oxoacetamide] was run?
Answer: < 100 nM

Question: Which IC50 does the source give for `COc1ccc2c(c1)c(C(=O)C(=O)Nc1cc(OC)ncc1F)c(C)n2Cc1ccc(Cl)cc1` [Compound 54, 2-(1-(4-chlorobenzyl)-5-methoxy-2-methyl-1H-indol-3-yl)-N-(5-fluoro-2-methoxypyridin-4-yl)-2-oxoacetamide] here?
Answer: < 100 nM

Question: With `COc1cc(NC(=O)C(=O)c2c(C)n(Cc3ccc(Cl)cc3)c3cc(Cl)c(OC)cc23)ccn1` [Compound 55, 2-(6-chloro-1-(4-chlorobenzyl)-5-methoxy-2-methyl-1H-indol-3-yl)-N-(2-methoxypyridin-4-yl)-2-oxoacetamide] as the molecule, how does the IC50 read?
Answer: < 100 nM

Question: With `COc1cc(NC(=O)C(=O)c2c(C)n(Cc3ccc(Cl)cc3)c3ccc(OC)c(OC)c23)ccn1` [Compound 56, 2-(1-(4-chlorobenzyl)-4,5-dimethoxy-2-methyl-1H-indol-3-yl)-N-(2-methoxypyridin-4-yl)-2-oxoacetamide] as the molecule, how does the IC50 read?
Answer: 1000 to 10000 nM

Question: With `COc1cc(NC(=O)C(=O)c2c(C)n(Cc3ccc(Cl)cc3)c3ccc(OC)c(Cl)c23)ccn1` [Compound 58, 2-(4-chloro-1-(4-chlorobenzyl)-5-methoxy-2-methyl-1H-indol-3-yl)-N-(2-methoxypyridin-4-yl)-2-oxoacetamide] as the molecule, how does the IC50 read?
Answer: 100 to 1000 nM

Question: `COc1cc(NC(=O)C(=O)c2c(C)n(Cc3ccc(Cl)cc3)c3ccc(OC)c(F)c23)ccn1` [Compound 59, 2-(1-(4-chlorobenzyl)-4-fluoro-5-methoxy-2-methyl-1H-indol-3-yl)-N-(2-methoxypyridin-4-yl)-2-oxoacetamide] was tested. Which IC50 did it give?
Answer: < 100 nM

Question: `COc1cc(NC(=O)C(=O)c2c(C)n(Cc3ccc(Cl)cn3)c3cc(Cl)c(OC)cc23)ccn1` [Compound 60, 2-(6-chloro-1-((5-chloropyridin-2-yl)methyl)-5-methoxy-2-methyl-1H-indol-3-yl)-N-(2-methoxypyridin-4-yl)-2-oxoacetamide] was tested. Which IC50 did it give?
Answer: < 100 nM

Question: Which IC50 does the source give for `COc1cc(NC(=O)C(=O)c2c(C)n(Cc3ccc(Cl)cn3)c3ccc(C)cc23)ccn1` [Compound 61, 2-(1-((5-chloropyridin-2-yl)methyl)-2,5-dimethyl-1H-indol-3-yl)-N-(2-methoxypyridin-4-yl)-2-oxoacetamide] here?
Answer: < 100 nM

Question: `COc1cc(NC(=O)C(=O)c2c(C)n(Cc3ccc(Cl)cn3)c3ccc([N+](=O)[O-])cc23)ccn1` [Compound 62, 2-(1-((5-chloropyridin-2-yl)methyl)-2-methyl-5-nitro-1H-indol-3-yl)-N-(2-methoxypyridin-4-yl)-2-oxoacetamide] was tested. Which IC50 did it give?
Answer: < 100 nM

Question: Which IC50 does the source give for `COc1cc(NC(=O)C(=O)c2c(C)n(Cc3ccc(Cl)cn3)c3ccc(Cl)cc23)ccn1` [Compound 63, 2-(5-chloro-1-((5-chloropyridin-2-yl)methyl)-2-methyl-1H-indol-3-yl)-N-(2-methoxypyridin-4-yl)-2-oxoacetamide] here?
Answer: < 100 nM

Question: Which IC50 does the source give for `COc1cc(NC(=O)C(=O)c2c(C)n(Cc3ccc(Cl)cn3)c3cc(F)c(OC)cc23)ccn1` [Compound 64, 2-(1-((5-chloropyridin-2-yl)methyl)-6-fluoro-5-methoxy-2-methyl-1H-indol-3-yl)-N-(2-methoxypyridin-4-yl)-2-oxoacetamide] here?
Answer: < 100 nM

Question: With `COc1cc(NC(=O)C(=O)c2c(C)n(Cc3ccc(Cl)cn3)c3ccc(N)cc23)ccn1` [Compound 65, 2-(5-amino-1-((5-chloropyridin-2-yl)methyl)-2-methyl-1H-indol-3-yl)-N-(2-methoxypyridin-4-yl)-2-oxoacetamide] as the molecule, how does the IC50 read?
Answer: < 100 nM

Question: For `COc1cc(NC(=O)C(=O)c2c(C)n(Cc3ccc(Cl)cn3)c3ccc(N(C)C)cc23)ccn1` [Compound 66, 2-(1-((5-chloropyridin-2-yl)methyl)-5-(dimethylamino)-2-methyl-1H-indol-3-yl)-N-(2-methoxypyridin-4-yl)-2-oxoacetamide], which IC50 is on record?
Answer: < 100 nM

Question: Which IC50 does the source give for `COc1cc(NC(=O)C(=O)c2c(C)n(Cc3ccc(Cl)cn3)c3cc(OC)c(Cl)cc23)ccn1` [Compound 67, 2-(5-chloro-1-((5-chloropyridin-2-yl)methyl)-6-methoxy-2-methyl-1H-indol-3-yl)-N-(2-methoxypyridin-4-yl)-2-oxoacetamide] here?
Answer: < 100 nM

Question: For `COc1cc(NC(=O)C(=O)c2c(C)n(Cc3ccc(Cl)cn3)c3ccccc23)ccn1` [Compound 68, 2-(1-((5-chloropyridin-2-yl)methyl)-2-methyl-1H-indol-3-yl)-N-(2-methoxypyridin-4-yl)-2-oxoacetamide], which IC50 is on record?
Answer: < 100 nM

Question: How did the IC50 turn out when `COc1ccc(Cn2c(C)c(C(=O)C(=O)Nc3ccnc(OC)c3)c3cc(C)ccc32)nc1` [Compound 69, 2-(1-((5-methoxypyridin-2-yl)methyl)-2,5-dimethyl-1H-indol-3-yl)-N-(2-methoxypyridin-4-yl)-2-oxoacetamide] was run?
Answer: < 100 nM

Question: How did the IC50 turn out when `COc1cc(NC(=O)C(=O)c2c(C)n(Cc3ncc(Cl)cc3Cl)c3cc(Cl)c(OC)cc23)ccn1` [Compound 70, 2-(6-chloro-1-((3,5-dichloropyridin-2-yl)methyl)-5-methoxy-2-methyl-1H-indol-3-yl)-N-(2-methoxypyridin-4-yl)-2-oxoacetamide] was run?
Answer: < 100 nM
